In brackets after ≈: the same amount, converted by molar mass. Read-outs that look alike come from different tables or passages of the source.
Assays:
CYP2C19 = target: T1, CYP2C19 (Homo sapiens, UniProt P33261); experiment: CYP inhibition test (CYP2C19); type: in vitro ADME; details: pooled human liver microsomes; mephenytoin 4′-hydroxylation
T1 construct: The commercially available pooled human liver microsomes are used as an enzyme resource; from tissue; host or cells: pooled human liver microsomes
T1 sequence (P33261 whole entry): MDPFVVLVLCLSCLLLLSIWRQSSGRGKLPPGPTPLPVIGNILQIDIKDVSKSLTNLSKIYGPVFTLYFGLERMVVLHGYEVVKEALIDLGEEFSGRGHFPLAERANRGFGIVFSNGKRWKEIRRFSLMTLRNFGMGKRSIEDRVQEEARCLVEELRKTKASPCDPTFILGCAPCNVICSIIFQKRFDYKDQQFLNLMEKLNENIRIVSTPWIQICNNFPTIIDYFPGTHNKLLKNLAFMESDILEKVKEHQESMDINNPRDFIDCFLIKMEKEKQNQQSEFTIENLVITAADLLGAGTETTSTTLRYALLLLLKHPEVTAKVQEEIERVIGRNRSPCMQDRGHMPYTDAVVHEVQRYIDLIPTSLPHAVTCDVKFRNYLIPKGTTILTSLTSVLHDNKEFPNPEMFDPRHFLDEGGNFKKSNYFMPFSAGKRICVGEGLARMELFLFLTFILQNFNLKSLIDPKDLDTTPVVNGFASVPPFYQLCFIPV
Method in brief: (§1)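 Pooled human liver microsomes (0.2 mg protein/mL) were incubated at 37 °C with NADPH, compound at 1, 5, 10, 20 μmol/L and marker substrates: tolbutamide 100 μmol/L (2C9), S-mephenytoin 50 μmol/L (2C19), dextromethorphan 5 μmol/L (2D6), terfenadine 1 μmol/L (3A4). Metabolites were measured by LC/MS/MS; IC50 came from logistic fitting against DMSO control.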

Metabolic stability test = type: in vitro ADME; details: human liver microsomes, 37° C., 30 minutes, NADPH
Method in brief: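 Parent compound was measured by LC/MS/MS or SPE/MS after a methanol/acetonitrile quench and reported as % remaining, with the 0 min sample set to 100%. Incubations ran 30 min at 37 °C in pH 7.4 Tris buffer containing pooled human liver microsomes at 0.5 mg protein/mL and 1 mmol/L NADPH.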

CYP3A4 = target: T2, CYP3A4 (Homo sapiens, UniProt P08684); experiment: CYP inhibition test (CYP3A4); type: in vitro ADME; details: pooled human liver microsomes; terfenadine hydroxylation
T2 construct: The commercially available pooled human liver microsomes are used as an enzyme resource; from tissue; host or cells: pooled human liver microsomes
T2 sequence (P08684 whole entry): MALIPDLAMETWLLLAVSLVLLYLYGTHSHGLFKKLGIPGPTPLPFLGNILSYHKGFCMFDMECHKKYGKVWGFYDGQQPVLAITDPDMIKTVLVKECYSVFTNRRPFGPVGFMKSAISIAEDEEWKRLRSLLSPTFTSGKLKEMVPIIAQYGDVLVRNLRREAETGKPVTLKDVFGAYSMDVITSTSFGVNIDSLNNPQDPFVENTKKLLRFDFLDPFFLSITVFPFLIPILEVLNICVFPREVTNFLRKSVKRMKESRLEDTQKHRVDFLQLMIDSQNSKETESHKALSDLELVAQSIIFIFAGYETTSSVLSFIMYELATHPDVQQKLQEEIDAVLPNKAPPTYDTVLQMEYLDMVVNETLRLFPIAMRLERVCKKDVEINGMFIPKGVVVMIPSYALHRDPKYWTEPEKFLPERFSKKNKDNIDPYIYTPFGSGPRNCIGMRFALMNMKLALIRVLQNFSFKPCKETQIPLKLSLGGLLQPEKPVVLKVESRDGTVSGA
Method in brief: as §1

CYP1A2 = target: T3, CYP1A2 (Homo sapiens, UniProt P05177); experiment: CYP inhibition test (CYP1A2); type: in vitro ADME; details: pooled human liver microsomes; 7-ethoxyresorufin O-deethylation
T3 construct: The commercially available pooled human liver microsomes are used as an enzyme resource; from tissue; host or cells: pooled human liver microsomes
T3 sequence (P05177 1-516): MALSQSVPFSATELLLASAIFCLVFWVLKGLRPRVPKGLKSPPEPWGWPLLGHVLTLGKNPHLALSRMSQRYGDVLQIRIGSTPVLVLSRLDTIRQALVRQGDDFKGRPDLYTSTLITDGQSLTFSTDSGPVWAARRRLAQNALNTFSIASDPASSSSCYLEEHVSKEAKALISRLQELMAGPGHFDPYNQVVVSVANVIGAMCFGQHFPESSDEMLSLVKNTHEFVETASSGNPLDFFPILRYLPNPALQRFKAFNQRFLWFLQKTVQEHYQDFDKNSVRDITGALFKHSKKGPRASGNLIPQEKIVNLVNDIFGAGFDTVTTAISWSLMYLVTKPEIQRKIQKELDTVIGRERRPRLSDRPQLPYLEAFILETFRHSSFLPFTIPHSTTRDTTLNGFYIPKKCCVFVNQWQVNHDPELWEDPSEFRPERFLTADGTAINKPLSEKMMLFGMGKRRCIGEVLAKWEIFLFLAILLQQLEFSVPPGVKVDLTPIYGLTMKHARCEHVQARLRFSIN
Method in brief: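 Inhibition of CYP1A2 was measured in commercially available pooled human liver microsomes (0.2 mg protein/mL) using 7-ethoxyresorufin O-deethylation with 0.5 μmol/L ethoxyresorufin. Test compound at 1, 5, 10, 20 μmol/L in […] Hepes buffer was incubated at 37° C. after NADPH addition; methanol/acetonitrile=1/1 (v/v) stopped the reaction, and resorufin was read fluorescently.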

Solubility test = type: physicochemical
Method in brief: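 Dissolved concentration determined by LC/MS or SPE/MS (absolute calibration) in diluted filtrates, after 2 μL of 10 mmol/L DMSO stock was added to 198 μL JP 1st or JP 2nd fluid and equilibrated either 1 h with shaking at room temperature or 16 h standing at 25 °C.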

[1] = target: T4, human ether-a-go-go related gene (hERG) channel (Homo sapiens, UniProt Q12809); experiment: hERG test; type: cell-based; details: % inhibition of IKr tail peak current at 3 uM; CHO cells expressing hERG
T4 construct: expressed in transfected cells; host or cells: CHO cells
T4 sequence (Q12809 whole entry): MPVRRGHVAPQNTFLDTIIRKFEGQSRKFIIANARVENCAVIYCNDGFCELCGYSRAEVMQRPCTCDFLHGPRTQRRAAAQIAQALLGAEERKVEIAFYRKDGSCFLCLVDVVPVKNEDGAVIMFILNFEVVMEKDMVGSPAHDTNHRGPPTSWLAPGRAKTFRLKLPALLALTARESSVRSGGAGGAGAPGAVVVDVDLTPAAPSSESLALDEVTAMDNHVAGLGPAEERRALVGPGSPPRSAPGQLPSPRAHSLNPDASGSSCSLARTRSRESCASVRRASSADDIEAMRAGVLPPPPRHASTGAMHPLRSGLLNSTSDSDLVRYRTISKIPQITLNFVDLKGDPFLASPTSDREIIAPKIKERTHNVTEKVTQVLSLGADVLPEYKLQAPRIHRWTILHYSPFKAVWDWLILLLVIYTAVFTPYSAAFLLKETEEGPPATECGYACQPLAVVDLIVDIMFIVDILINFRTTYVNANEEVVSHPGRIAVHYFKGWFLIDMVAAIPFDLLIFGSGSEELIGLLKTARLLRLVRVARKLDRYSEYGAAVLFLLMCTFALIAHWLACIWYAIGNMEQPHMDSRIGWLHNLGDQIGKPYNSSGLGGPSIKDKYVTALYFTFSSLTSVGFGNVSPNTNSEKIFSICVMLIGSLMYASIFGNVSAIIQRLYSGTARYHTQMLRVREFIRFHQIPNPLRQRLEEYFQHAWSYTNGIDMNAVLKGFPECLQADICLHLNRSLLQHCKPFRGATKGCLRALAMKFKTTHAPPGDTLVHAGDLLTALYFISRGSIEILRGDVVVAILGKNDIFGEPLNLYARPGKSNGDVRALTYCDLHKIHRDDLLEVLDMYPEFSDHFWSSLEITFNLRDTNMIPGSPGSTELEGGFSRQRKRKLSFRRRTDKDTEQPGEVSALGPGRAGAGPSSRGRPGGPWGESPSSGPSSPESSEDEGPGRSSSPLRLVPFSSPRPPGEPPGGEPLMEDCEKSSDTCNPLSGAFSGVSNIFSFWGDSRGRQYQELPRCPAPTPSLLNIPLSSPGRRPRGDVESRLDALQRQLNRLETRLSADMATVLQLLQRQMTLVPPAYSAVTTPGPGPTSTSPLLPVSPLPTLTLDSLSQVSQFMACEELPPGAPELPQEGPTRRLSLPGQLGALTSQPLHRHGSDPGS
Method in brief: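 IKr was recorded from hERG-expressing CHO cells by automated whole-cell patch clamp at a holding potential of −80 mV. A −50 mV leak step was followed by a 2 s depolarization to +20 mV and a 2 s repolarization to −50 mV, when current was measured.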

[2] = JP 1st fluid, 25 °C, pH 1.2, simulated gastric fluid, kinetic from dmso stock, read-out: JP1
[3] = JP 2nd fluid A, 25 °C, pH 6.8, aqueous buffer, kinetic from dmso stock, read-out: JP2_μM
[4] = JP 1st fluid, pH 1.2, simulated gastric fluid, kinetic from dmso stock, read-out: JP1
[5] = JP 2nd fluid A, pH 6.8, aqueous buffer, kinetic from dmso stock, read-out: JP2_μM
[6] = solubility in JP 2nd fluid B, 1% DMSO, *2: shaken for 1 hour at room temperature, read-out: JP2_μM
[7] = JP 2nd fluid B, pH 6.8, aqueous buffer, kinetic from dmso stock, read-out: JP2_μM

Structure (SMILES)	IC50 (CYP2C19) [µM]	remaining % (Metabolic stability test) [%]	IC50 (CYP3A4) [µM]	IC50 (CYP1A2) [µM]	solubility kinetic at 16 h (Solubility test; [2]) [µM]	solubility kinetic at 16 h (Solubility test; [3]) [µM]	hERG_3 uM_% [1] [%]	solubility kinetic at 1 h (Solubility test; [4]) [µM]	solubility kinetic at 1 h (Solubility test; [5]) [µM]	solubility kinetic at 16 h (Solubility test; [6]) [µM]	solubility kinetic at 1 h (Solubility test; [7]) [µM]
C[C@H]1SC(N)=N[C@](C)(c2nc(NC(=O)c3ccc(C#N)cn3)ccc2F)[C@H]1F [Compound I-1]	≥ 20	82.4	≥ 20	≥ 20	> 50	> 50					
C[C@]1(c2nc(NC(=O)c3ccc(C#N)cn3)ccc2F)N=C(N)S[C@H](CF)[C@@H]1F [Compound I-4]	≥ 20		≥ 20	≥ 20	35.8 (≈ 15.1 µg/mL)	> 50	47.9				
C[C@@]1(c2cc(NC(=O)c3ccc(C#N)cn3)ccc2F)C[C@@](C)(C(F)(F)F)OC(N)=N1 [Compound I-7]		82			> 50	> 50	47.4				
COc1cnc(C(=O)Nc2ccc(F)c([C@@]3(C)N=C(N)S[C@H](C)[C@@H]3F)c2)cn1 [Compound I-8]	≥ 20		≥ 20	≥ 20	46.4 (≈ 18.9 µg/mL)	> 50	16.7				
C[C@]1(c2cc(NC(=O)c3ccc(C#N)cn3)ccc2F)N=C(N)O[C@H](CF)[C@@H]1OCC(F)(F)F [Compound I-10]	≥ 20	95.6	≥ 20	≥ 20	40 (≈ 19.3 µg/mL)	> 50					
COc1cnc(C(=O)Nc2ccc(F)c([C@@]3(C)N=C(N)O[C@H]([C@H](C)F)[C@@H]3F)c2)cn1 [Compound I-17]	≥ 20		≥ 20	≥ 20			19.5	33.9 (≈ 14.4 µg/mL)	> 50		
C[C@H]1[C@@H](C(F)(F)F)OC(N)=N[C@]1(C)c1cc(NC(=O)c2ccc(C#N)cn2)ccc1F [Compound I-28]	≥ 20		≥ 20	≥ 20	40.4 (≈ 17.6 µg/mL)	> 50	36.2				
C[C@H]1[C@@H](C(F)(F)F)OC(N)=N[C@]1(C)c1cc(NC(=O)c2cnc(OCF)cn2)ccc1F [Compound I-30]	≥ 20		≥ 20	≥ 20	39.2 (≈ 18 µg/mL)	> 50	15.1				
C[C@]1(c2cc(NC(=O)c3ccc(C#N)cn3)ccc2F)N=C(N)O[C@H]2[C@@H]1OCC2(F)F [Compound I-35]	≥ 20		≥ 20	≥ 20	> 50	> 50	41.1				
C[C@H]1[C@@H](C(F)(F)F)OC(N)=N[C@]1(C)c1cc(NC(=O)c2cnc(OCF)cn2)ccc1F [Compound I-41]		105					24.8	> 50	> 50		
C[C@H]1SC(N)=N[C@](C)(c2cc(NC(=O)c3cnc(OCC(F)(F)F)cn3)ccc2F)[C@H]1F [Compound I-46]	≥ 20	97.8		≥ 20			33.4	> 50	8.3 (≈ 3.95 µg/mL)		
C[C@H]1SC(N)=N[C@](C)(c2cc(NC(=O)c3cnc(OCC(F)F)cn3)ccc2F)[C@H]1F [Compound I-48]	≥ 20	92.9	≥ 20	≥ 20				> 50	39.5 (≈ 18.1 µg/mL)		
COc1ccc(C(=O)Nc2ccc(F)c([C@@]3(C)N=C(N)S[C@H](C)[C@@H]3F)c2)nc1 [Compound I-50]	≥ 20		≥ 20	≥ 20			34.3	> 50		>50	
COc1cnc(C(=O)Nc2ccc(F)c([C@@]3(C)N=C(N)SCC34CC(F)(F)C4)c2)cn1 [Compound I-55]	≥ 20		≥ 10	≥ 20			39.5	> 50		>50	
C[C@]1(c2cc(NC(=O)c3ccc(C#N)cn3)ccc2F)N=C(N)SCC12CC(F)(F)C2 [Compound I-59]	≥ 20	66.8		≥ 20				> 50		>50	
C[C@H]1SC(N)=N[C@](C)(c2cc(NC(=O)c3cnc(OCF)cn3)ccc2F)C12CC(F)(F)C2 [Compound I-62]	≥ 20			≥ 20			29.6	> 50		>50	
C[C@H]1SC(N)=N[C@](C)(c2cc(NC(=O)c3ccc(F)cn3)ccc2F)C12CC(F)(F)C2 [Compound I-63]	≥ 20	75.8		≥ 20			53.2	> 50		>50	
CC#CCOc1cnc(C(=O)Nc2ccc(F)c([C@@]3(C)N=C(N)O[C@H](C(C)(F)F)[C@@H]3F)c2)cn1 [Compound I-76]	≥ 10			≥ 20			5.8	> 50			8.2 (≈ 3.93 µg/mL)
COCC(F)(F)[C@H]1OC(N)=N[C@](C)(c2cc(NC(=O)c3cnc(OCF)cn3)ccc2F)[C@H]1F [Compound I-79]	≥ 20		≥ 10	≥ 20			7.8	> 50		>50	
C[C@]1(c2cc(NC(=O)c3ccc(C#N)cn3)ccc2F)N=C(N)O[C@H](C2(F)CC2)[C@@H]1F [Compound I-96]	≥ 20	101	≥ 20	≥ 20				45.8 (≈ 19.7 µg/mL)			> 50
C[C@]1(c2cc(NC(=O)c3ccc(OCF)cn3)ccc2F)N=C(N)O[C@H](C2(F)CC2)[C@@H]1F [Compound I-101]	≥ 20	91.8	≥ 20	≥ 20				> 50		>50.0	
COc1cnc(C(=O)Nc2cccc([C@@]3(C)N=C(N)S[C@H](C)[C@@H]3F)c2)cn1 [Compound I-103]	≥ 20	78.3	≥ 20	≥ 20				49.4 (≈ 19.2 µg/mL)			> 50
C[C@H]1SC(N)=N[C@](C)(c2cccc(NC(=O)c3cnc(OCF)cn3)c2)[C@H]1F [Compound I-104]	≥ 20	77.7	≥ 20	≥ 20				40.6 (≈ 16.5 µg/mL)			> 50
C[C@H]1SC(N)=N[C@](C)(c2cccc(NC(=O)c3cnc(C(F)F)cn3)c2)[C@H]1F [Compound I-106]	≥ 20	84.1	≥ 20	≥ 20				42 (≈ 17.2 µg/mL)			> 50
